EPA's ToxRefDB 2

Experiments:
[1] = tested on: primate; settings: Subchronic oral toxicity in nonrodent, Gavage/Intubation, dose end: 91 day, group: systemic, systemic / in life observation / clinical signs / ataxia + systemic / in life observation / clinical signs / convulsions + systemic / in …
[2] = tested on: dog; settings: Sub-acute repeat dose toxicity, beagle, Oral, Gavage/Intubation, dose end: 17 day, group: systemic
[3] = tested on: mouse; settings: Carcinogenicity, cd1, Oral, Water, dose end: 24 month, group: systemic
[4] = tested on: rabbit; settings: Prenatal developmental toxicity study, new zealand white, Oral, Gavage/Intubation, dose end: 19 GD
[5] = tested on: rat; settings: Combined chronic toxicity/carcinogenicity, sprague dawley, Oral, Water, dose end: 24 month, group: systemic
[6] = tested on: rat; settings: Subchronic dermal toxicity, sprague dawley, Topical, dose end: 13 week, group: systemic, systemic / in life observation / clinical signs / desquamation + systemic / in life observation / clinical signs / erythema + systemic / in …
[7] = tested on: rat; settings: Prenatal developmental toxicity study, sprague dawley, Oral, Gavage/Intubation, dose end: 17 GD, group: maternal
[8] = tested on: rat; settings: Sub-acute repeat dose toxicity; sprague dawley; Oral; Gavage/Intubation; dose end: 4 week; group: systemic; systemic / clinical chemistry / alanine aminotransferase (alt/sgpt) / alanine aminotransferase (alt/sgpt) + systemic / clinical chemistry / …
[9] = tested on: rat; settings: Combined chronic toxicity/carcinogenicity; sprague dawley; Oral; Water; dose end: 24 month; group: systemic; systemic / in life observation / mortality / mortality + systemic / pathology gross / kidney / calculus + systemic / pathology gross / …
[10] = tested on: mouse; settings: Carcinogenicity, b6c3f1, Oral, Water, dose end: 104 week, group: systemic
[11] = tested on: mouse; settings: Subchronic oral toxicity in rodents, b6c3f1, Water, dose end: 13 week, group: systemic
[12] = tested on: rat; settings: Subchronic oral toxicity in rodents, sprague dawley, Water, dose end: 13 week, group: systemic
[13] = tested on: rabbit; settings: Prenatal developmental toxicity study, dutch, Oral, Gavage/Intubation, dose end: 18 GD
[14] = tested on: rat; settings: Prenatal developmental toxicity study, sprague dawley, Oral, Gavage/Intubation, dose end: 15 GD
[15] = tested on: rabbit; settings: Prenatal developmental toxicity study, chinchilla, Oral, Gavage/Intubation, dose end: 18 GD
[16] = tested on: rat; settings: Subchronic oral toxicity in rodents, other, Water, dose end: 90 day, group: systemic
[17] = systemic / clinical chemistry / alanine aminotransferase (alt/sgpt) / alanine aminotransferase (alt/sgpt) + systemic / clinical chemistry / …
[18] = systemic / hematology / erythrocyte (rbc) count differential / erythrocyte (rbc) + systemic / hematology / hematocrit (hct) / hematocrit (…
[19] = group: developmental, developmental / developmental malformation / general / [other]
[20] = group: maternal, systemic / in life observation / body weight / body weight + systemic / in life observation / body weight / body weight gain + systemic / in…
[21] = systemic / pathology microscopic / stomach / hyperkeratosis + systemic / pathology microscopic / stomach / hyperplasia + systemic / in life …
[22] = reproductive / reproductive performance / postimplantation loss / postimplantation loss + reproductive / reproductive performance / …
[23] = systemic / in life observation / clinical signs / distended abdomens + systemic / urinalysis / sodium / sodium
[24] = systemic / pathology gross / urinary bladder / calculus
[25] = systemic / pathology gross / urinary bladder / calculus + systemic / pathology microscopic / urinary bladder / congestion
[26] = systemic / clinical chemistry / protein / protein
[27] = systemic / pathology gross / urinary bladder / calculus + systemic / pathology microscopic / urinary bladder / hyperplasia
[28] = group: developmental, developmental / developmental malformation / general / crown-rump length + systemic / in life observation / body weight / fetal weight
[29] = group: maternal, systemic / in life observation / body weight / body weight
[30] = group: developmental, developmental / developmental malformation / bone / incomplete ossification
[31] = group: developmental, developmental / developmental malformation / bone / unossified + systemic / in life observation / body weight / fetal weight
[32] = group: maternal, systemic / in life observation / body weight / body weight gain + systemic / in life observation / food consumption / food consumption
[33] = group: maternal, systemic / in life observation / body weight / body weight gain + systemic / in life observation / food consumption / food consumption + …
[34] = systemic / in life observation / body weight / body weight + systemic / in life observation / clinical signs / fur (altered appearance) + …

Cl.NCC1(Cc2noc(=O)[nH]2)CCCCC1
LEL [1]: 250 mg/kg/day
LOAEL [1]: > 1500 mg/kg/day
NEL [1]: 50 mg/kg/day
NOAEL [1]: ≥ 1500 mg/kg/day

CC(C)(O)c1cnn2c(-c3ccc(F)c(-c4c(F)cccc4C#N)c3)cnc2n1
LOAEL [2, 17]: > 15 mg/kg/day
NEL [2, 17]: 0.5 mg/kg/day
NOAEL [2, 17]: ≥ 15 mg/kg/day
LEL ([2]; systemic / clinical chemistry / albumin / albumin): 2.5 mg/kg/day

CN(C)N [1,1-Dimethylhydrazine]
LEL [3, 18]: 1.41 mg/kg/day
NEL [3, 18]: 0.269 mg/kg/day
LOAEL ([3]; systemic / pathology microscopic / liver / hyperplasia + systemic / pathology microscopic / liver / pigmentation): 1.91 mg/kg/day
NOAEL ([3]; systemic / pathology microscopic / liver / hyperplasia + systemic / pathology microscopic / liver / pigmentation + systemic / in life …): 0.97 mg/kg/day

Cn1sc(Cl)cc1=O [5-Chloro-2-methyl-3(2H)-isothiazolone]
LEL [4, 19]: 8 mg/kg/day
LOAEL [4, 19]: 8 mg/kg/day
NEL [4, 19]: 2 mg/kg/day
NOAEL [4, 19]: 2 mg/kg/day
LEL [4, 20]: 8 mg/kg/day
LOAEL [4, 20]: 8 mg/kg/day
NEL [4, 20]: 2 mg/kg/day
NOAEL [4, 20]: 2 mg/kg/day
LOAEL ([5]; systemic / pathology microscopic / stomach / hyperkeratosis + systemic / pathology microscopic / stomach / hyperplasia): 6.6 mg/kg/day
NEL [5, 21]: 2 mg/kg/day
NOAEL [5, 21]: 2 mg/kg/day
LEL ([5]; systemic / pathology microscopic / stomach / hyperkeratosis + systemic / pathology microscopic / stomach / hyperplasia + systemic / …): 6.6 mg/kg/day
LEL [6]: 0.75 mg/kg/day
LOAEL [6]: 0.75 mg/kg/day
NEL [6]: < 0.75 mg/kg/day
NOAEL [6]: < 0.75 mg/kg/day

O=C(O)c1ccccc1-n1cc(C(=O)O)c(=O)c2cc(Nc3c(F)cc(F)cc3Cl)c(Cl)cc21 [AVE9423]
LOAEL [7, 22]: > 1000 mg/kg/day
NEL [7, 22]: 40 mg/kg/day
NOAEL [7, 22]: ≥ 1000 mg/kg/day
LEL ([7]; reproductive / reproductive performance / postimplantation loss / postimplantation loss + systemic / in life observation / body weight / …): 200 mg/kg/day
LEL [8]: 200 mg/kg/day
LOAEL [8]: 200 mg/kg/day
NEL [8]: 20 mg/kg/day
NOAEL [8]: 20 mg/kg/day

O=c1[n-]c(=O)[nH]c(=O)[nH]1.[Na+] [Sodium cyanurate]
LEL [9]: 371 mg/kg/day
LOAEL [9]: 371 mg/kg/day
NEL [9]: 154 mg/kg/day
NOAEL [9]: 154 mg/kg/day
LEL ([10]; systemic / in life observation / body weight / body weight gain): 100 mg/kg/day
NEL ([10]; systemic / in life observation / body weight / body weight gain + systemic / in life observation / clinical signs / distended abdomens + …): 25.9 mg/kg/day
LOAEL [10, 23]: > 1520 mg/kg/day
NOAEL [10, 23]: ≥ 1520 mg/kg/day
LEL [11, 24]: 252 mg/kg/day
NEL [11, 24]: < 252 mg/kg/day
LOAEL [11, 25]: 1990 mg/kg/day
NOAEL [11, 25]: 522 mg/kg/day
LEL [12, 26]: 132 mg/kg/day
NEL [12, 26]: < 132 mg/kg/day
LOAEL [12, 27]: > 672 mg/kg/day
NOAEL [12, 27]: ≥ 672 mg/kg/day
LEL [13, 28]: 500 mg/kg/day
LOAEL [13, 28]: 500 mg/kg/day
NEL [13, 28]: 200 mg/kg/day
NOAEL [13, 28]: 200 mg/kg/day
LEL [13, 29]: 200 mg/kg/day
LOAEL [13, 29]: 200 mg/kg/day
NEL [13, 29]: 50 mg/kg/day
NOAEL [13, 29]: 50 mg/kg/day

CCCCCCCCCCCCCC[P+](CCCC)(CCCC)CCCC.[Cl-] [Tributyltetradecylphosphonium chloride]
LEL [14, 30]: 30 mg/kg/day
LOAEL [14, 30]: 30 mg/kg/day
NEL [14, 30]: 10 mg/kg/day
NOAEL [14, 30]: 10 mg/kg/day
LOAEL [14, 20]: 120 mg/kg/day
NEL [14, 20]: 20 mg/kg/day
NOAEL [14, 20]: 60 mg/kg/day
LEL ([14]; group: maternal, systemic / in life observation / food consumption / food consumption + systemic / in life observation / clinical signs / respiration (…): 60 mg/kg/day
LEL [15, 31]: 11.2 mg/kg/day
LOAEL [15, 31]: 11.2 mg/kg/day
NEL [15, 31]: 3.75 mg/kg/day
NOAEL [15, 31]: 3.75 mg/kg/day
LEL [15, 32]: 11.2 mg/kg/day
LOAEL [15, 32]: 11.2 mg/kg/day
NEL [15, 33]: 3.75 mg/kg/day
NOAEL [15, 33]: 3.75 mg/kg/day
LOAEL [16, 34]: 27.2 mg/kg/day
NEL [16, 34]: 2.56 mg/kg/day
NOAEL [16, 34]: 8.66 mg/kg/day
LEL ([16]; systemic / organ weight / kidney / relative to body weight): 8.66 mg/kg/day
